What was measured:
[1] = test system: velvetleaf; assay: Test C pre-/postemergence herbicide test; assay type: in vivo, Abutilon theophrasti; conditions: for Plant response rating, Velvetleaf: preemergence
Outline: (§1)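 Greenhouse-grown plants were evaluated visually 12 to 14 days after treatment, with 100 meaning complete control and 0 no effect. Application was preemergence, or postemergence at 2 to 18 cm.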

[2] = test system: cocklebur; assay: Test C pre-/postemergence herbicide test; assay type: in vivo, Xanthium strumarium; conditions: for Plant response rating, Cocklebur / Plant response rating (0 = no effect, 100 = complete control), Cocklebur: preemergence; for Plant response rating (0 = no effect, 100 = complete control), Cocklebur: 62 g ai/ha
Outline: as §1

[3] = test system: corn; assay: Test C pre-/postemergence herbicide test; assay type: in vivo, Zea mays; conditions: for Plant response rating, Corn / Plant response rating (0 = no effect, 100 = complete control), Corn: preemergence; for Plant response rating (0 = no effect, 100 = complete control), Corn: 62 g ai/ha
Outline: as §1

[4] = test system: corn; assay: Test B pre-/postemergence herbicide test; assay type: in vivo, Zea mays; conditions: for Corn plant response rating: postemergence, visual rating
Outline: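 Evaluation is visual, comparing treated with control plants on a scale where 0 means no effect and 100 means full control. Treatments were preemergence, or postemergence on seedlings 2–18 cm tall, and held 13–15 days in the greenhouse.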

[5] = test system: kochia; assay: Test C pre-/postemergence herbicide test; assay type: in vivo, Kochia scoparia; conditions: for Plant response rating, Kochia / Plant response rating (0 = no effect, 100 = complete control), Kochia: preemergence; for Plant response rating (0 = no effect, 100 = complete control), Kochia: 62 g ai/ha
Outline: as §1

[6] = test system: velvetleaf; assay: Test A pre-/postemergence herbicide test; assay type: in vivo, Abutilon theophrasti
Outline: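 Plants are held in greenhouse about ten days after treatment, then compared with untreated controls and scored 0 (no effect) to 100 (complete control). Preemergence dosing is a directed soil spray on sown sandy loam; postemergence dosing is spray to runoff at 2–10 cm height.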

[7] = test system: ducksalad; assay: Test B flooded paddy test; assay type: in vivo, Heteranthera limosa; conditions: 1000 g ai/ha, visual rating, scale 0 to 100 (0 no effect, 100 complete control), 13 to 15 days
Outline: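 After treating 2-leaf paddy plants or 2–18 cm postemergence plants (1 to 4 leaves) with formulated chemical, researchers kept them in a greenhouse for 13–15 days. Effects were judged visually versus controls: 0 indicates none, 100 total control.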

[8] = test system: giant foxtail; assay: Test C pre-/postemergence herbicide test; assay type: in vivo, Setaria faberi; conditions: for Plant response rating, Foxtail, Giant / Plant response rating (0 = no effect, 100 = complete control), Foxtail, Giant: preemergence; for Plant response rating (0 = no effect, 100 = complete control), Foxtail, Giant: 62 g ai/ha
Outline: as §1

[9] = 125 g ai/ha, scale 0 (no effect) to 100 (complete control), visual, 12 to 14 days
[10] = 250 g ai/ha, scale 0 to 100 (0 no effect, 100 complete control), visual, 12 to 14 days
[11] = 500 g ai/ha, visual rating 0-100, 0 no effect, 100 complete control, preemergence
[12] = 125 g ai/ha, scale 0 (no effect) to 100 (complete control)
[13] = preemergence, 125 g ai/ha, 0 to 100 scale, 0 is no effect, 100 is complete control
[14] = Postemergence, 500 g ai/ha, 0 to 100 scale, 0 no effect, 100 complete control
[15] = Postemergence, 2000 g ai/ha, 0 to 100 scale, 0 no effect, 100 complete control
[16] = Preemergence, 2000 g ai/ha, visual rating, 0 to 100 scale (0 no effect, 100 complete control)
[17] = preemergence, 500 g ai/ha, visual injury, 0 to 100 scale (0 no effect, 100 complete control)
[18] = Preemergence, 500 g ai/ha, scale 0 to 100, 0 no effect, 100 complete control

| Structure (SMILES) | Plant response rating, Velvetleaf [1, 9] | Plant response rating (0 = no effect, 100 = complete control), Cocklebur [2] | Plant response rating, Cocklebur [2, 9] | Plant response rating, Cocklebur [2, 10] | Plant response rating (0 = no effect, 100 = complete control), Corn [3] | Plant response rating, Corn [3, 9] | Plant response rating, Corn [3, 10] | Plant response rating, Corn [4, 11] | Corn plant response rating [4, 12] | Plant response rating, Corn [4, 13] | Plant response rating (0 = no effect, 100 = complete control), Kochia [5] | Plant response rating, Kochia [5, 9] | Velvetleaf plant response rating [6, 14] | Plant response rating, Velvetleaf [6, 15] | Velvetleaf plant response rating [6, 16] | Ducksalad plant response rating [7] | Plant response rating (0 = no effect, 100 = complete control), Foxtail, Giant [8] | Plant response rating, Foxtail, Giant [8, 9] | Plant response rating, Foxtail, Giant [8, 10] | Velvetleaf plant response rating [6, 17] | other results |
| --- | --- | --- | --- | --- | --- | --- | --- | --- | --- | --- | --- | --- | --- | --- | --- | --- | --- | --- | --- | --- | --- |
| CCOC(=O)c1cc(NC(=O)c2cc(C(C)(C)C)nn2CC)ccc1OCC [Compound 95] | 60 | 0 | 5 | 10 | 0 | 10 | 20 | 60 | 10 | 60 | 100 | 100 | 45 | 50 | 80 | 80 | 60 | 100 | 100 | – | Plant response rating, Velvetleaf ([1]; 31 g ai/ha, scale 0 to 100): 0; Plant response rating, Cocklebur ([2]; 31 g ai/ha, scale 0 to 100): 0; Plant response rating, Corn ([3]; 31 g ai/ha, scale 0 to 100): 0; Plant response rating, Corn ([4]; Postemergence, 500 g ai/ha, visual rating after 13 to 15 days, scale 0 (no effect) to 100 (complete control)): 10; Plant response rating, Kochia ([5]; 31 g ai/ha, scale 0 to 100): 80; Velvetleaf plant response rating ([6]; Preemergence, 500 g ai/ha, visual rating, 0 to 100 scale (0 no effect, 100 complete control)): 50; Plant response rating, Foxtail, Giant ([8]; 31 g ai/ha, scale 0 to 100): 0 |
| CC(=O)c1cccc(NC(=O)c2cc(C(C)(C)C)nn2CCF)c1 [Compound 128] | 100 | 10 | 10 | – | 20 | 20 | – | 20 | – | 0 | 0 | 0 | 20 | 35 | 85 | 90 | 10 | 10 | – | 75 | – |
| CCCCOc1cccc(NC(=O)c2cc(C(C)(C)C)nn2CC)c1 [Compound 137] | 10 | 0 | 0 | 0 | 0 | 5 | 5 | 10 | 10 | 10 | 80 | 90 | 60 | 70 | 35 | 30 | 10 | 50 | 60 | 20 | Velvetleaf plant response rating [1, 18]: 100; Cocklebur plant response rating [2, 18]: 0; Corn plant response rating [3, 18]: 5; Corn plant response rating ([4]; 500 g ai/ha, scale 0 (no effect) to 100 (complete control)): 20; Kochia plant response rating [5, 18]: 100; Foxtail, Giant plant response rating [8, 18]: 85 |

From patent US20060069132A1, “Azolecarboxamide herbicides” (priority 2004, published 2006)
